From patent US7261901B2, “Vaccine and compositions for the prevention and treatment of neisserial infections” (University of Iowa Research Foundation, priority 2001, dated 2007)

What was measured:
primary cervical cells = experiment: Association and invasion assays, primary cervical cells (cell type not specified); format: cell-based, human; conditions: negative controls: 200 nM 4-α phorbol, 3 mM hydrogen peroxide
Experimental: The anti-PLD antibody was screened for specificity to PLD using assays well-known to the art.
(§1) 8. N. gonorrhoeae Attachment to and Invasion of Primary, Human, Cervical Cells. Primary cervical cell monolayers were infected with wild-type or PLD mutant gonococci as outlined above. Variable concentrations of Streptomyces spp. PLD (SsPLD) (Sigma), PMA, or 4-α phorbol were included in association (adherence and invasion) or invasion assays, as noted. Cervical cells were preincubated (30 minutes, 37° C.) with 200 nM PMA or 4-α phorbol before the addition of gonococci. 10 units ml^−1 SsPLD was added simultaneously with gonococci. Alternatively, where noted, cervical cell monolayers were pre-incubated (30 minutes, 37° C.) with pervanadate, which was made by mixing 100 μM ortho-sodium vanadate in 3 mM hydrogen peroxide. In separate assays, infection supernatants were collected from wild-type or PLD mutant-infected cervical cell monolayers, gonococci were removed by filtration through a 0.22 μm syringe filter (i.e., wild-type or mutant primed supernatants) and were added to association and/or invasion assays, as noted. The ability of gonococci to adhere to and/or invade pex and pen cells was quantitatively determined using standard gentimicin-resistance assays, performed as described previously (Edwards et al., 2000), and in which chemical or protein additives were included or excluded from the invasion assay as described above. The total association (i.e., adherence and invasion) of gonococci with pex and pen cells was quantitated by the omission of gentimicin from the above described invasion assay. Percent invasion of N. gonorrhoeae 1291 or 1291ΔPLDin the presence or absence of experimental additives was determined as a function of the original inoculum and the number of colonies formed with subsequent plating of the cellular lysate. A Kruskal-Wallis non-parametric analysis of variance was used to determine the statistical significance of the association and invasion assays described above.

[1] = test system: primary ectocervical cells; experiment: Gentamycin-resistance invasion assay of N. gonorrhoeae 1291 with inhibitors of cytoskeletal motility and protein synthesis, ectocervical cells; format: cell-based, human; conditions: for effect on bacterial entry / gonococcal invasion: both cell types (endo- and ectocervical)
Experimental: Invasion Assays in the Presence of Inhibitors of Cytoskeletal Motility and Protein Synthesis: Cervical cells were passed to 12 mm collagen-coated coverslips as outlined above. Prior to infection with N. gonorrhoeae 1291 wild-type cells, primary cell cultures were left untreated, or they were pre-incubated with 300 nM wortmannin (Sigma), 1 μM cytochalasin D (Sigma), or 400 mM ethylene glycol bis-(2-aminoethyl ether)-N,N, N′, N′ tetraacetic acid ((EGTA) Amresco, Solon, Ohio) for 2 h, 30 min, and 30 min, respectively, or they were pretreated with 100 µg/ml nocodazole (Calbiochem-Novabiochem Corp., La Jolla, Calif.) for 1 h at 4° C. followed by a 30 min incubation at 37° C. The requirement for de novo protein synthesis, either by the bacteria or by the primary cervical cells, was tested by pretreatment (30 min, 37° C.) of the bacterial cultures or cervical cell monolayers with 4 μg/ml chloramphenicol (Sigma) or 25 μM cycloheximide (Calbiochem-Novabiochem Corp.), respectively. All chemical reagents used were maintained in the infection medium throughout the course of the infection. […] Infection was allowed to progress at 37° C., 5% CO2, for 1.5 h after which the medium was removed, the cells were rinsed with PBS, and then incubated with KGM-2 containing 100 μg/ml gentamycin to kill extracellular bacteria. Post incubation the cervical cells were lysed with 0.5% saponin to release invasive bacteria. Percent invasion was determined as a function of the original inoculum and the number of colonies formed with subsequent plating of the cellular lysate. A Kruskal-Wallace ANOVA was used to determine the statistical significance of the calculated percent invasion for each of the cytoskeletal motility inhibitors used with respect to the untreated, infected cell cultures.

PLD = PLD activity (Amplex Red Phospholipase D Assay Kit) in gonococci, infected cervical cell lysates, fractions and supernatants; format: biochemical, N. gonorrhoeae
Experimental: (§2) 4. Determination of PLD Activity. PLD activity was accessed using the Amplex™ Red Phospholipase D Assay Kit (Molecular Probes, Eugene Oreg.). Wild-type and PLD mutant gonococci were suspended in PLD assay buffer to a final concentration of 10^7 bacteria ml^−1, and activity was determined according to the manufacturer's protocol. Assessment of PLD activity at acidic pH was determined in a two-step assay according to the manufacturer's protocol. For the first step, 10^8 gonococci were suspended in PBS with the pH adjusted to 3.0, 4.5, or 6.0. Gonococcal suspensions were diluted 10-fold in PLD assay buffer for the second step of the reaction. Cervical cell fractions were prepared as outlined below and PLD activity was assessed at neutral pH according to the manufacturer's protocol.
5. Fractionation of Primary Cervical Cells. Uninfected (control) and infected cervical cell monolayers were lysed in buffer A (50 mM tris, pH 7.5; 10 mM NaCl, 1 mM KCl; 2 mM MgCl2, 1 mM PMSF) by scraping cervical cells from tissue culture dishes placed on ice. The cell lysate was sonicated (two bursts of 20 seconds each). Cell debris and the nuclear fraction was removed by centrifugation (750×g, 10 minutes), and the supernatant from this spin was then subjected to filtration through a low-protein binding 0.22 μm syringe filter to ensure removal of gonococci. Alternatively, gonococci were removed by immunoprecipitation (as described by Wen et al., 2000) using the monoclonal antibody, 2C3, which recognizes the H.8 outer membrane protein of the pathogenic Neisseria. Sucrose was added to the resulting gonococcus-depleted supernatant (S1) to a final concentration of 300 mM. Ultracentrifugation (150,000×g, 90 minutes) was then performed to produce the plasma membrane-(pellet) and cytosol (supernatant 2, S2)-enriched fractions. The membrane-enriched fraction was resuspended in PLD assay buffer (50 mM Tris, 5 mM CaCl2, pH 8.0). S2 was concentrated by filtration through Centricon YM-30 centrifugal filter units (Millipore) after which cytosolic constituents were recovered in PLD assay buffer. Where indicated, prior to infection studies primary pex and pen cell monolayers were treated with 300 nM wortmannin (Sigma) (2 hours, 37° C.) or 1 μM cytochalasin D (Sigma) (30 minutes, 37° C.) to inhibit macropinocytosis of gonococci. Wortmannin and cytochalasin D were maintained in cervical cell cultures during the course of infection.
as §2, with “Determination of” for “4. Determination of”, “Assessment of gonococcal PLD activity” for “Assessment of PLD activity”
Fractionation of Primary Cervical Cells. Uninfected (control) and infected cervical cell monolayers were lysed in buffer A (50 mM tris, pH 7.5; 10 mM NaCl, 1 mM KCl; 2 mM MgCl2, 1 mM PMSF) by scraping cervical cells from tissue culture dishes placed on ice. The cell lysate was sonicated (two bursts of 20 seconds each). […] Sucrose was added to the resulting gonococcus-depleted supernatant (S1) to a final concentration of 300 mM. Ultracentrifugation (150,000×g, 90 minutes) was then performed to produce the plasma membrane-(pellet) and cytosol (supernatant 2, S2)-enriched fractions. The membrane-enriched fraction was resuspended in PLD assay buffer (50 mM Tris, 5 mM CaCl2, pH 8.0). […]

Ectocervical Cells = experiment: Association and invasion (gentimicin-resistance) assays, primary ectocervical (pex) cells; format: cell-based, human
Experimental: as §1
N. gonorrhoeae Attachment to and Invasion of Primary, Human, Cervical Cells. Primary cervical cell monolayers were infected with wild-type or PLD mutant gonococci as outlined above. Variable concentrations of PtC (Sigma), ethanol, 2-butanol, or Streptomyces spp. PLD (SsPLD) (Sigma) were included in association (adherence and invasion) or invasion assays, as noted. PtC, ethanol, 2-butanol, or 10 units ml^−1 SsPLD were added simultaneously with gonococci. In separate assays, infection supernatants were collected from wild-type or PLD mutant-infected cervical cell monolayers, gonococci were removed by filtration through a 0.22 μm syringe filter (to yield primed wild-type or mutant supernatants), which were then added to association and/or invasion assays, as noted. The ability of gonococci to adhere to and/or invade pex and pen cells was quantitatively determined using standard gentimicin-resistance assays, performed as described previously (Edwards et al., 2000) and in which chemical or protein additives were included or excluded from the invasion assay as described above. The total association (i.e., adherence and invasion) of gonococci with pex and pen cells was quantitated by the omission of gentimicin from the above described invasion assay. Percent invasion of N. gonorrhoeae 1291 or 1291ΔPLD in the presence or absence of experimental additives was determined as a function of the original inoculum and the number of colonies formed with subsequent plating of the cellular lysate. Inhibition of gonococcal attachment and/or invasion by exogenous PtC, ethanol, or 2-butanol was determined as a normalized function of the ability of gonococci to attach to and/or invade primary cervical cells in the absence of the competimer inhibitor. A Kruskal-Wallis non-parametric analysis of variance was used to determine the statistical significance of the association and invasion assays described above.

[2] = test system: primary human ectocervical cells; experiment: rI-domain inhibition of adherence and invasion of primary ectocervical cells by N. gonorrhoeae 1291; format: cell-based
Experimental: Studies were performed evaluating the ability of the rI-domain to inhibit adherence and invasion of primary human ectocervical cells by Neisseria gonorrhoeae. The cervical cells were infected with 107 N. gonorrhoeae strain 1291. Recombinant I-domain is a potent inhibitor of ectocervical cell association by Neisseria gonorrhoeae. As little as 1 ng of rI-domain gives over 90% inhibition of invasion. With decreasing amounts of rI-domain the inhibition decreases in a dose dependent fashion.

[3] = PtC 10.0 µg/ml, wild-type gonococci

## CC1=C[C@H]2[C@@]3(O)[C@H](C)[C@@H](O)[C@]4(O)[C@H]([C@@H]3C=C(CO)C[C@@]2(O)C1=O)C4(C)C [4-α-phorbol]
Primary cervical cells
  effect on gonococcal association, invasion or CR3 cell surface recruitment: had no affect

## O=C(N[C@H](CO)[C@H](O)c1ccc([N+](=O)[O-])cc1)C(Cl)Cl [Chloramphenicol, chloramphenicol]
[1]
  effect on bacterial entry / gonococcal invasion: did not inhibit gonococcal invasion

## C[C@@H]1C[C@@H]([C@H](O)CC2CC(=O)NC(=O)C2)C(=O)[C@@H](C)C1 [Cycloheximide, cycloheximide]
[1]
  effect on bacterial entry / gonococcal invasion: did not inhibit gonococcal invasion

## C=C1[C@@H](C)[C@H]2[C@H](Cc3ccccc3)NC(=O)[C@]23[C@H](OC(C)=O)/C=C/[C@@](C)(O)C(=O)[C@@H](C)C/C=C/[C@H]3[C@@H]1O [Cytochalasin D, cytochalasin D]
PLD; Cytosolic fraction, 1291ΔPLD infected w/ inhibitor (300 nM wortmannin or 1 μM cytochalasin D)
  PLD Activity in Ectocervical Cell Fractions [Mean (variance)]: 0.330 (0.07) Fluorescence Units
PLD; Cytosolic fraction, Uninfected w/ inhibitor (300 nM wortmannin or 1 μM cytochalasin D)
  PLD Activity in Ectocervical Cell Fractions [Mean (variance)]: 0.395 (0.03) Fluorescence Units
PLD; Cytosolic fraction, WT 1291 infected w/ inhibitor (300 nM wortmannin or 1 μM cytochalasin D)
  PLD Activity in Ectocervical Cell Fractions [Mean (variance)]: 0.462 ((0.03) Fluorescence Units
PLD; Membrane fraction, 1291ΔPLD infected w/ inhibitor (300 nM wortmannin or 1 μM cytochalasin D)
  PLD Activity in Ectocervical Cell Fractions [Mean (variance)]: 0.393 (0.01) Fluorescence Units
PLD; Membrane fraction, Uninfected w/ inhibitor (300 nM wortmannin or 1 μM cytochalasin D)
  PLD Activity in Ectocervical Cell Fractions [Mean (variance)]: 0.389 (0.01) Fluorescence Units
PLD; Membrane fraction, WT 1291 infected w/ inhibitor (300 nM wortmannin or 1 μM cytochalasin D)
  PLD Activity in Ectocervical Cell Fractions [Mean (variance)]: 0.436 (0.03) Fluorescence Units
[1]
  effect on bacterial entry / gonococcal invasion: prohibited bacterial entry

## O=C(O)CN(CCOCCOCCN(CC(=O)O)CC(=O)O)CC(=O)O [EGTA, ethylene glycol bis-(2-aminoethyl ether)-N,N, N′, N′ tetraacetic acid]
[1]
  effect on bacterial entry / gonococcal invasion: prohibited bacterial entry

## COC(=O)Nc1nc2ccc(C(=O)c3cccs3)cc2[nH]1 [Nocodazole, nocodazole]
[1]; pretreatment of primary cervical cell monolayers
  decrease in gonococcal invasion: ~67%

## phosphatidylcholine [PtC]
Ectocervical Cells; [3]
  Inhibition (%): 98.7786 (0.08) %
  Invasion (%): 0.0331 (0.01) %
Ectocervical Cells; PtC 0.01 g/ml
  Inhibition (%): 68.8105 (2.15) %
  Invasion (%): 0.8379 (0.03) %
Ectocervical Cells; PtC 0.1 g/ml
  Inhibition (%): 87.3571 (0.28) %
  Invasion (%): 0.3418 (0.01) %
Ectocervical Cells; PtC 1.0 g/ml
  Inhibition (%): 92.4681 (0.38) %
  Invasion (%): 0.2038 (0.01) %

B1: rI domain: recombinant murine I-domain of CR3 alpha-subunit, 23 kilodalton peptide with Myc and His domains (SEQ ID NO: 11) (protein, listed as Mus musculus)
chain: FPQQESDIVFLIDGSGSINNIDFQKMKEFVSTVMEQFKKSKTLFSLMQYSDEFRIHFTFNDFKRNPSPRSHVSPIKQLNGRTKTASGIRKVVRELFHKTNGARENAAKILVVITDGEKFGDPLDYKDVIPEADRAGVIRYVIGVGNAFNKPQSRRELDTIASKPAGEHVFQVDNFEALNTIQNQLQEKIFAIPAAASFL
modifications: Myc and His tags
[2]; rI domain 1 pg/ml
  % inhibition of invasion of primary exocervical cells: 17.4%
[2]; rI domain 10 pg/ml
  % inhibition of invasion of primary exocervical cells: 56.3%
[2]; rI domain 100 pg/ml
  % inhibition of invasion of primary exocervical cells: 77.5%
[2]; rI domain 1 ng/ml
  % inhibition of invasion of primary exocervical cells: 92.1%
[2]; rI domain 1 ng/ml, listed as rI-domain
  % inhibition of invasion of primary exocervical cells: over 90%
[2]; rI domain 10 ng/ml
  % inhibition of invasion of primary exocervical cells: 94.6%
[2]; rI domain 100 ng/ml
  % inhibition of invasion of primary exocervical cells: 96.8%
[2]; rI domain 1 μg/ml, N. gonorrhoeae 1291
  % inhibition of invasion of primary exocervical cells: 98.56%
